Laboratory results from ChEMBL document CHEMBL1141415, “Design, synthesis, and crystal structure of hydroxyethyl secondary amine-based peptidomimetic inhibitors of human beta-secretase” (J Med Chem, 2007).

Columns and labels:
[1] = biological target: Beta-secretase 1 (Homo sapiens, UniProt P56817); test: Inhibition of human BACE1 by MBPC125Swe assay; assay type: cell-based
[2] = biological target: T1, Beta-secretase (BACE) (Homo sapiens, UniProt Q9Y5Z0+P56817); test: Inhibition of beta amyloid production in human HEK293 cells; assay type: functional, cell-based
T1 sequence (P56817 whole entry, looked up): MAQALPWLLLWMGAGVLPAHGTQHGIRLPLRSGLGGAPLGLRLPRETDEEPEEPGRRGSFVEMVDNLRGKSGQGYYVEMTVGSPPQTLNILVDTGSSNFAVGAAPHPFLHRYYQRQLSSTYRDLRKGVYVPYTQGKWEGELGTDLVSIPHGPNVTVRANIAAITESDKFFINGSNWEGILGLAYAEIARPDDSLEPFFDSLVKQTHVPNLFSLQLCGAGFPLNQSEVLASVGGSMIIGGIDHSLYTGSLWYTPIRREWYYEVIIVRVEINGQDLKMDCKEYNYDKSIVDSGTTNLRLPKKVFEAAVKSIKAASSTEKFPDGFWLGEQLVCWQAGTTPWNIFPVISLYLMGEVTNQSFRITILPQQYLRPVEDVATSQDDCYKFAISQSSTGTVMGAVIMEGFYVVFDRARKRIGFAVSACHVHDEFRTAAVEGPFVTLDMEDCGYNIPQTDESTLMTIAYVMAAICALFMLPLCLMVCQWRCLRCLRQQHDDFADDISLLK
T1 sequence (Q9Y5Z0 whole entry, looked up): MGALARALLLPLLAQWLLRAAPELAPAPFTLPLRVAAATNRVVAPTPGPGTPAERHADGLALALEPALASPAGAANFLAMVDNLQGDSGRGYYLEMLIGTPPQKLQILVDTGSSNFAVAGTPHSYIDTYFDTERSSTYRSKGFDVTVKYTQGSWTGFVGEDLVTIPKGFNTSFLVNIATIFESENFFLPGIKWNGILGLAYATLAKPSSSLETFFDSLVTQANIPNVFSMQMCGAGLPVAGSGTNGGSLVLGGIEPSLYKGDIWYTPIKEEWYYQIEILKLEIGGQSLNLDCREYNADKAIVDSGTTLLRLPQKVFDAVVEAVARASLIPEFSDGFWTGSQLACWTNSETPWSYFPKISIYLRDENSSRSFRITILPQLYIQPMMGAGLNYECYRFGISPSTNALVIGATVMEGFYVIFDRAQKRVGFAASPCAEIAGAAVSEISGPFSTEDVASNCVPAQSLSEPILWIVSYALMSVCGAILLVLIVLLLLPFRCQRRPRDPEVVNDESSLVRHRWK

[3] = biological target: T1, Beta-secretase (BACE); test: Ratio of EC50 for beta amyloid to IC50 for BACE1; assay type: functional

Chain of Beta-secretase 1 (P56817 whole entry): as the sequence (P56817 whole entry, looked up) above

| IC50 [1] [nM] | EC50 [2] [nM] | Ratio [3] | Compound |
| --- | --- | --- | --- |
| 130 | 40 | 0.3 | CCCN(CCC)C(=O)c1cc(C)cc(C(=O)N[C@@H](Cc2cc(F)cc(F)c2)[C@H](O)CNCc2ccccc2)c1 |
| 500 | 600 |  | CCCN(CCC)C(=O)c1cccc(C(=O)N[C@@H](Cc2cc(F)cc(F)c2)[C@H](O)CN[C@H](C)C(=O)NCC(C)C)c1 |
| 130 | 230 | 1 | CCCN(CCC)C(=O)c1cccc(C(=O)N[C@@H](Cc2cc(F)cc(F)c2)[C@H](O)CN[C@@H](C)C(=O)NCC(C)C)c1 |
|  | 230 |  | CCCN(CCC)C(=O)c1cc(C)cc(C(=O)N[C@@H](Cc2cc(F)cc(F)c2)[C@H](O)CNC(C)(C)C(=O)NCC(C)C)c1 |
| 70 | 80 |  | CCCN(CCC)C(=O)c1cc(C)cc(C(=O)N[C@@H](Cc2cc(F)cc(F)c2)[C@H](O)CN[C@@H](C)C(=O)NCC(C)C)c1 |
